Test results: article PMC12242667, “Attenuation of 6‑OHDA-Induced Neurotoxicity by 1,2,3-Triazole-Based Sulfonamides through SIRT1 Activity” (ACS Omega, 2025)
Like-named read-outs stand apart in the source and are kept apart here.

Columns and labels:
[1] = system: normal embryonic lung (MRC-5) cell line; assay: Cytotoxicity on MRC-5 cell line, MTT assay; format: cell-based; conditions: Homo sapiens, MRC5, MRC-5 cells, 48 h incubation
Protocol: Normal embryonic lung MRC-5 cells and neuroblastoma SH-SY5Y cells from the American Type Culture Collection (Manassas, VA, USA) were maintained in DMEM with 10% heat-inactivated FBS and 1% penicillin-streptomycin at 37 °C in humidified air containing 5% carbon dioxide.
Cytotoxicity of 1,2,3-triazole-based sulfonamides was evaluated by using a normal embryonic lung (MRC-5) cell line. The MRC-5 cells were cultured in 96-well microtiter plates (Corning Inc., NY, USA) at 5,000–20,000 cells/well and incubated for 24 h at 37 °C in humidified air containing 5% carbon dioxide. Subsequently, various concentrations of 1,2,3-triazole derivatives, doxorubicin (used as a positive control), and DMSO (used as a negative control) were added and incubated for an additional 48 h. MTT reagent (0.5 mg/mL in medium) was added for cell staining and incubated for 4 h. Then, the remaining formazan was dissolved in DMSO by sonication. The absorbance of the test wavelength of 550 nm and the reference wavelength of 650 nm was analyzed with a microplate reader (Molecular Devices, CA, USA). IC50 of each compound was determined as the concentration of the compound that inhibits cell growth by 50%.

[2] = system: 6-OHDA-induced SH-SY5Y neuronal cells; assay: Intracellular ROS production, H2DCFDA assay; format: cell-based; conditions: Homo sapiens, relative to control; for activity at 5 µM: 5 μM pretreatment 3 h, then 50 μM 6-OHDA 24 h
Protocol: ROS production in SH-SY5Y neuronal cells was investigated using H2DCFDA. 1.0 × 10^5 cells/mL of SH-SY5Y neuronal cells were seeded into 96-well plates for 24 h, and 5 μM of selected 1,2,3-triazole-based sulfonamide derivatives were pretreated for 3 h. Then, neurotoxicity of the cells were induced with 50 μM of 6-OHDA for another 24 h. The neuronal cells with 10 μM H2DCFDA were incubated for 30 min at 37 °C in the dark. The emission and excitation wavelengths of 528 nm and 485 nm, respectively, were measured by using a microplate reader. The measured ROS production was calculated as a percentage relative to the control group.

[3] = target: T1, SIRT1 (Homo sapiens, UniProt Q96EB6); assay: SIRT1 deacetylase activity in SH-SY5Y cell lysate; format: cell-based; conditions: for activity at 5 µM: 5 μM pretreatment 3 h, then 50 μM 6-OHDA 24 h, relative to control
T1 construct: endogenous in cells; host or cells: SH-SY5Y
T1 sequence (Q96EB6 1-747): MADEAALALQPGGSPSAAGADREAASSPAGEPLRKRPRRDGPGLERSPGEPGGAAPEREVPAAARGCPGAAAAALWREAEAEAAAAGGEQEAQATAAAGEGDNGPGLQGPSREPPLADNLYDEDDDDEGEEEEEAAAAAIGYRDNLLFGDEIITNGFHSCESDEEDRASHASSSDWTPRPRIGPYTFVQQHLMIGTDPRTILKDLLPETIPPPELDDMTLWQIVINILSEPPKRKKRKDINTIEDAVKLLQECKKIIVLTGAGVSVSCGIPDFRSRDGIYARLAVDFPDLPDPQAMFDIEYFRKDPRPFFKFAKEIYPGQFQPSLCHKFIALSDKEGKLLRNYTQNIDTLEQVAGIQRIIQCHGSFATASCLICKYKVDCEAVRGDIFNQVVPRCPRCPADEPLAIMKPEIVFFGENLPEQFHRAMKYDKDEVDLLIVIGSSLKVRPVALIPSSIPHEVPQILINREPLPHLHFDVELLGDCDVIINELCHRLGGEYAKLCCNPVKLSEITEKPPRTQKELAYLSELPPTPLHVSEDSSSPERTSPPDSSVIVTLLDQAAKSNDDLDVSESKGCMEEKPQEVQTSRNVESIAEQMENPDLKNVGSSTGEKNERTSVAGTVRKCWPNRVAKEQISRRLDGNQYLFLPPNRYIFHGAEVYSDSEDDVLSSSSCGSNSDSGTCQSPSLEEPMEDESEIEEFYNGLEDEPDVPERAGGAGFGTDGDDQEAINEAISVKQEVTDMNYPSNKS
Protocol: SH-SY5Y neuronal cells at 1.0 × 10^5 cells/mL were seeded into 6-well plates for 24 h. Then, the cells were pretreated with 5 μM 1,2,3-triazole-based sulfonamide derivatives for 3 h before neurotoxicity was induced with 50 μM 6-OHDA for another 24 h. The cell culture medium was rinsed off with cold 1X PBS. The cells were incubated at 4 °C with 1X RIPA buffer containing a protease inhibitor for 20 min before being harvested using a cell scraper, followed by centrifugation at 12,000 rpm for 20 min. Protein concentrations were measured using the Bradford protein assay, and SIRT1 activity in the cells was determined following the manufacturer’s instructions. The increase in SIRT1 enzyme activity was measured by fluorescence intensity at an excitation wavelength of 340 nm and an emission wavelength of 445 nm. SIRT1 enzyme activity was statistically analyzed as a percentage relative to the control group.

[4] = system: 6-OHDA-induced SH-SY5Y neuronal cells; assay: Cellular leakage of LDH enzyme; format: cell-based, Human; conditions: percentage of control; for LDH leakage (LDH activity): 5 μM pretreatment 3 h, then 50 μM 6-OHDA 24 h
Protocol: Leakage of LDH, an enzyme commonly used as an assessment factor to evaluate cellular damage, was measured to determine the protective ability of the compounds against 6-OHDA-induced neuronal damage. 1.0 × 10^5 cells/mL of SH-SY5Y neuronal cells were seeded into 6-well plates for 24 h. The cells were pretreated with 5 μM of 1,2,3-triazole-based sulfonamide derivatives for 3 h before being treated with 50 μM of 6-OHDA for 24 h. The cell culture medium of SH-SY5Y cells was collected, and LDH leakage was evaluated using the LDH assay kit. In the presence of LDH, lactate is converted into pyruvate, resulting in an elevated level of NADH production, which is determined via the change in absorbance at 450 nm. LDH activity was calculated according to the manufacturer’s instructions and shown as a percentage of the control group.

[5] = system: 6-OHDA-induced SH-SY5Y neuronal cells; assay: Neuroprotection: cell viability of 6-OHDA-induced SH-SY5Y cells, MTT assay; format: cell-based, Human; conditions: then 50 μM 6-OHDA 24 h
Protocol: (§1) Prior to investigations, 1.0 × 10^5 SH-SY5Y neuronal cells/mL were seeded into 96-well plates for 24 h. To determine the optimal concentration of 6-OHDA for inducing neurotoxicity, cells were seeded into 96-well plates for 24 h and treated with various concentrations of 6-OHDA ranging from 25 to 125 μM for another 24 h. For the evaluation of the cytotoxicity of 1,2,3-triazole-based sulfonamide derivatives on SH-SY5Y neuronal cells, the cells were treated with various concentrations (0.1–10 μM) of 1,2,3-triazole-based sulfonamide derivatives for 24 h.^29 To assess the neuroprotective activity of 1,2,3-triazole-based sulfonamide derivatives, the cells were pretreated with various concentrations (0.1–10 μM) of 1,2,3-triazole-based sulfonamide derivatives for 3 h before being treated with 50 μM of 6-OHDA for another 24 h. Cell viability was assessed by incubating with 5 mg/mL of MTT reagent for 3 h at 37 °C, followed by absorbance measurement at 570 nm using a microplate reader (Thermo Fisher Scientific Inc., MA, USA). The viability of SH-SY5Y cells at each concentration was analyzed as a percentage relative to the control group.

[6] = Cytotoxicity of 6-OHDA against SH-SY5Y cells, MTT assay; format: cell-based; conditions: human, SH-SY5Y neuronal cells, relative to control, read-out: cell viability; for viability at 24 h: 6-OHDA
Protocol: as §1

| SMILES | IC50 [1] [µM] | activity at 5 µM [2] [%] | activity at 5 µM [3] [%] | LDH leakage (LDH activity) [4] [%] | cell viability of 6-OHDA-induced cells ([5]; pretreatment 1 μM 3 h) [%] | cell viability of 6-OHDA-induced cells ([5]; pretreatment 5 μM 3 h) [%] | other results |
| --- | --- | --- | --- | --- | --- | --- | --- |
| O=c1ccc2ccc(OCc3cn(-c4ccc(S(=O)(=O)NCCc5ccccc5)cc4)nn3)cc2o1 [6a] | 55.3 ± 1.45 | – | – | – | – | – | – |
| Cc1ccc(OCc2cn(-c3ccc(S(=O)(=O)N4CCc5ccccc5C4)cc3)nn2)cc1 [2b] | 70.4 ± 6.8 | – | – | – | – | – | – |
| O=c1cc(OCc2cn(-c3ccc(S(=O)(=O)N4CCc5ccccc5C4)cc3)nn2)c2ccccc2o1 [6b] | > 97.2 | – | – | – | – | – | – |
| Oc1ccc(/C=C/c2cc(O)cc(O)c2)cc1 [Resveratrol, reference compound] | – | 101 ± 5.5 | 92.6 ± 1.06 | 115.6 ± 2.723 | 88.04 ± 6.146 | 92.06 ± 9.069 | cell viability of 6-OHDA-induced cells ([5]; pretreatment 0.1 μM (first of four concentrations 0.1–10 μM) 3 h): 90.01 ± 4.738%; cell viability of 6-OHDA-induced cells ([5]; pretreatment 10 μM (last of four concentrations 0.1–10 μM) 3 h): 90.47 ± 9.763% |
| COc1cc2c(cc1OC)CN(S(=O)(=O)c1cccc(-n3cc(COc4ccc5ccc(=O)oc5c4)nn3)c1)CC2 [3c] | > 87 | – | – | – | – | – | – |
| CC(=O)c1ccccc1OCc1cn(-c2ccc(S(=O)(=O)N3CCc4ccccc4C3)cc2)nn1 [5b] | 15.4 ± 1.1 | – | – | – | – | – | – |
| COc1ccc(CCNS(=O)(=O)c2ccc(-n3cc(-c4ccccc4)nn3)cc2)cc1OC [8a] | 78.8 ± 8.11 | – | – | – | – | – | – |
| Cc1ccc(OCc2cn(-c3ccc(S(=O)(=O)NCCc4ccccc4)cc3)nn2)cc1 [2a] | 89.4 ± 2.95 | 102 ± 4.74 | 91.9 ± 1.45 | 109.8 ± 3.826 | 90.11 ± 5.567 | 89.25 ± 3.236 | – |
| O=c1cc(OCc2cn(-c3ccc(S(=O)(=O)NCCc4ccccc4)cc3)nn2)c2ccccc2o1 [7a] | > 99.5 | – | – | – | – | – | – |
| COc1cccc2c1C(=O)c1c(O)c3c(c(O)c1C2=O)C[C@@](O)(C(=O)CO)C[C@@H]3O[C@H]1C[C@H](N)[C@H](O)[C@H](C)O1 [Doxorubicin, reference compound] | 2.57 ± 0.36 | – | – | – | – | – | – |
| O=c1ccc2ccc(OCc3cn(-c4cccc(S(=O)(=O)N5CCc6ccccc6C5)c4)nn3)cc2o1 [1c] | 14.4 ± 0.34 | – | – | – | – | – | – |
| NCCc1cc(O)c(O)cc1O [6-OHDA, 6-hydroxydopamine] | – | – | – | – | – | – | activity at 50 µM ([2]; 50 μM 6-OHDA alone, 24 h): 119 ± 4.75%; viability at 24 h, 25 μM ([6]; 6-OHDA 25 μM (first of five concentrations 25–125 μM)): 90 ± 2.81%; viability at 24 h, 125 μM ([6]; 6-OHDA 125 μM (fifth of five concentrations 25–125 μM)): 54.4 ± 3.06%; viability at 24 h ([6]; fourth of five concentrations 25–125 μM): 56.2 ± 2.37%; viability at 24 h ([6]; second of five concentrations 25–125 μM): 78.5 ± 2.73%; viability at 24 h ([6]; third of five concentrations 25–125 μM): 61.6 ± 2.44%; activity at 50 µM ([3]; 24 h, read-out: SIRT1 activity): 78.8 ± 3.74%; LDH activity ([4]; 50 μM 6-OHDA alone, 24 h): 132.4 ± 5.089% |
| O=Cc1ccc(OCc2cn(-c3ccc(S(=O)(=O)N4CCc5ccccc5C4)cc3)nn2)cc1 [3b] | > 105 | 103 ± 5.8 | 94.3 ± 3.28 | 115.6 ± 2.926 | 89.37 ± 4.597 | 90.41 ± 7.193 | – |
| O=[N+]([O-])c1ccc(OCc2cn(-c3ccc(S(=O)(=O)NCCc4ccccc4)cc3)nn2)cc1 [4a] | 80.4 ± 3.79 | 103 ± 5.15 | 92.9 ± 3.19 | 113.3 ± 6.585 | 88.68 ± 3.959 | 85.48 ± 4.470 | – |
| Cc1ccccc1OCc1cn(-c2ccc(S(=O)(=O)N3CCc4ccccc4C3)cc2)nn1 [4b] | 19 ± 0.89 | 102 ± 5.64 | 91.06 ± 0.589 | 113.5 ± 2.954 | 88.69 ± 4.465 | 84.03 ± 1.563 | – |
| Cc1ccccc1OCc1cn(-c2ccc(S(=O)(=O)NCCc3ccccc3)cc2)nn1 [5a] | > 111 | 104 ± 4.42 | 93.7 ± 2.54 | 116.0 ± 2.698 | 91.89 ± 9.100 | 90.88 ± 6.158 | – |
| O=S(=O)(c1ccc(-n2cc(COc3ccccc3)nn2)cc1)N1CCc2ccccc2C1 [1b] | 59 ± 3.69 | – | – | – | – | – | – |
| O=c1cc(OCc2cn(-c3cccc(S(=O)(=O)N4CCc5ccccc5C4)c3)nn2)c2ccccc2o1 [2c] | > 97.2 | – | – | – | – | – | – |
| O=Cc1ccc(OCc2cn(-c3ccc(S(=O)(=O)NCCc4ccccc4)cc3)nn2)cc1 [3a] | > 108 | 103 ± 4.94 | 92.5 ± 1.98 | 112.6 ± 2.585 | 85.36 ± 4.615 | 87.69 ± 4.276 | – |
| COc1cc2c(cc1OC)CN(S(=O)(=O)c1cccc(-n3cc(COc4cc(=O)oc5ccccc45)nn3)c1)CC2 [4c] | > 87 | – | – | – | – | – | – |
| O=S(=O)(NCCc1ccccc1)c1ccc(-n2cc(-c3ccccc3)nn2)cc1 [1a] | 103 ± 1.31 | – | – | – | – | – | – |
